Data taken from the NIST ThermoML archive (doi:10.1021/je300111m).
“And” between values parts separate entries of the source, which are not always exact repeats. Identical values can stand only once. ± gives the expanded uncertainty stated by the source.

Conditions: Liquid

Row | Structure (SMILES) | vapor or sublimation pressure (243.03 K) [kPa] | vapor or sublimation pressure (293.38 K) [kPa] | vapor or sublimation pressure (222.83 K) [kPa] | vapor or sublimation pressure (243.02 K) [kPa] | vapor or sublimation pressure (243.18 K) [kPa] | vapor or sublimation pressure (243.2 K) [kPa] | vapor or sublimation pressure (273.12 K) [kPa] | vapor or sublimation pressure (273.13 K) [kPa] | vapor or sublimation pressure (293.43 K) [kPa] | vapor or sublimation pressure (243.23 K)
1 | CCCC [butane] | 29.1 ± 0.5 | 210.8 ± 3.5 |  |  |  |  |  |  |  | 
2 | S [hydrogen sulfide] |  |  | 167.3 ± 2.8 | 384 ± 6.2 | 380.2 ± 6.2 | 379.4 ± 6.2 | 1030.2 ± 17 | 1029.3 ± 17 | 1793.7 ± 29 | 
3 | CCC [propane] |  |  |  |  |  |  | 473.5 ± 7.7 |  |  | 168 ± 2.8 kPa and 168.2 ± 2.8 kPa
